Experimental data as given in patent US8003649B2 (AstraZeneca AB, priority 2007, dated 2011).

Target: T1, Androgen Receptor (AR) (Homo sapiens, UniProt P10275, T878A)
T1 construct: cell based immuno-fluorescence assay using the LNCaP prostate epithelial cell line; endogenous in cells; host or cells: LNCaP clone FGC (ATCC CRL-1740)
T1 sequence (P10275 1-920 T878A): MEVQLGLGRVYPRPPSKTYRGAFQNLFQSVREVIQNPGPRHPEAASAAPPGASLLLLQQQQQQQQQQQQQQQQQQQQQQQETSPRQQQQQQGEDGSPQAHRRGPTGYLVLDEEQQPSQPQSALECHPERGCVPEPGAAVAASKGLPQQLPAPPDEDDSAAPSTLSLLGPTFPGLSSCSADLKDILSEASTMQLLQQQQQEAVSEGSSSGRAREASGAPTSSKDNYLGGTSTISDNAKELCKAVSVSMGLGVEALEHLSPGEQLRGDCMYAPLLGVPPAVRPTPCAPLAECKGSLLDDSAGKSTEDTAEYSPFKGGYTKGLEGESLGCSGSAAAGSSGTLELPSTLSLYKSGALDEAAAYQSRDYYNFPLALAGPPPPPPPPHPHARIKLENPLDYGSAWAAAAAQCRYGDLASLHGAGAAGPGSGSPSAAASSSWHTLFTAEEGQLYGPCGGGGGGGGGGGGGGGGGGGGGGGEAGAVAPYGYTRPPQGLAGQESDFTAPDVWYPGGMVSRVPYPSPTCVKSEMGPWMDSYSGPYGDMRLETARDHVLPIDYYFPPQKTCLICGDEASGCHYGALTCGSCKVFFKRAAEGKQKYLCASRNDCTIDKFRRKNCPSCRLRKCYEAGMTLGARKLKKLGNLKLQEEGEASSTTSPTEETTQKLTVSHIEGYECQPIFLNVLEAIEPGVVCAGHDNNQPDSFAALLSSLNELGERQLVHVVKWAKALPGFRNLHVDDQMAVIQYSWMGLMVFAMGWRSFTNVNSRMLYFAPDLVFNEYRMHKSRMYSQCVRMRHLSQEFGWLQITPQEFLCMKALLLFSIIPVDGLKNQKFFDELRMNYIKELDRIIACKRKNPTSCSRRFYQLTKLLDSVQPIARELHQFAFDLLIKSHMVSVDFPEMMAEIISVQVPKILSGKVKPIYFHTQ
Assay: LNCaP Androgen Receptor Down-regulation Cell Assay (immunofluorescence end point)
Assay type: cell-based
Settings: LNCaP prostate carcinoma cells, compound incubation 20-22 hours, 50% reduction of the AR signal; read-out: Androgen Receptor Down-regulation Assay (a) IC50/μM
In short: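 AR loss reported as IC50 from curve fits of fluorescence dose-response data, with AR immunostained and read by laser-scanning cytometry. Compound exposure was 20-22 h at 37° C in LNCaP cells grown in 5% charcoal-stripped FBS and plated overnight beforehand.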

Row | SMILES | DC50
1 | Fc1cc(CN2CCN(c3ccc4nnc(C(F)(F)F)n4n3)CC2)cc(C(F)F)c1 [Example 783, 6-[4-[3-(difluoromethyl)-5-fluorobenzyl]piperazin-1-yl]-3-(trifluoromethyl)[1,2,4]triazolo[4,3-b]pyridazine] | 0.84 µM
2 | Fc1cc(CN2CCN(c3ccc4nnc(C(F)F)n4n3)CC2)cc(C(F)F)c1 [Example 784, 3-(difluoromethyl)-6-[4-[3-(difluoromethyl)-5-fluorobenzyl]piperazin-1-yl][1,2,4]triazolo[4,3-b]pyridazine] | 2.2 µM
3 | Cc1cc(CN2CC3CN(c4ccc5nnc(C(F)(F)F)n5n4)CC3C2)ccn1 (stereo not drawn) [Example 785, 6-[5-[(2-methylpyridin-4-yl)methyl]hexahydropyrrolo[3,4-c]pyrrol-2(1H)-yl]-3-(trifluoromethyl)[1,2,4]triazolo[4,3-b]pyridazine] | 1.7 µM
4 | FC(F)(F)c1nnc2ccc(N3CC4CN(Cc5ccccn5)CC4C3)nn12 (stereo not drawn) [Example 786] | 8.4 µM
5 | COc1ncccc1CN1CC2CN(c3ccc4nnc(C(F)(F)F)n4n3)CC2C1 (stereo not drawn) [Example 788] | 2.2 µM
6 | Fc1cncc(CN2CC3CN(c4ccc5nnc(C(F)(F)F)n5n4)CC3C2)c1 (stereo not drawn) [Example 789] | 2.1 µM
7 | FC(F)(F)c1nnc2ccc(N3CC4CN(Cc5cccnc5Cl)CC4C3)nn12 (stereo not drawn) [Example 790] | 2 µM
8 | FC(F)(F)c1nnc2ccc(N3CC4CN(Cc5ccc(Cl)nc5)CC4C3)nn12 (stereo not drawn) [Example 791] | 0.96 µM
9 | COc1ccc(CN2CC3CN(c4ccc5nnc(C(F)(F)F)n5n4)CC3C2)cn1 (stereo not drawn) [Example 793] | 1.6 µM
10 | FC(F)(F)c1nnc2ccc(N3CC4CN(Cc5cncc(Br)c5)CC4C3)nn12 (stereo not drawn) [Example 794] | 1.1 µM
11 | Fc1ncc(Br)cc1CN1CC2CN(c3ccc4nnc(C(F)(F)F)n4n3)CC2C1 (stereo not drawn) [Example 795] | 2.4 µM
12 | FC(F)(F)c1nnc2ccc(N3CC4CN(Cc5cccnc5Br)CC4C3)nn12 (stereo not drawn) [Example 796] | 0.63 µM
13 | COc1cncc(CN2CC3CN(c4ccc5nnc(C(F)(F)F)n5n4)CC3C2)c1 (stereo not drawn) [Example 797] | 2.4 µM
14 | FC(F)(F)c1nnc2ccc(N3CC4CN(Cc5ccc(Br)nc5)CC4C3)nn12 (stereo not drawn) [Example 798] | 1 µM
15 | Cc1ncccc1CN1CC2CN(c3ccc4nnc(C(F)(F)F)n4n3)CC2C1 (stereo not drawn) [Example 799] | 1.6 µM
16 | FC(F)(F)c1nnc2ccc(N3CC4CN(Cc5cnccc5Cl)CC4C3)nn12 (stereo not drawn) [Example 800] | 1.1 µM
17 | COc1ccncc1CN1CC2CN(c3ccc4nnc(C(F)(F)F)n4n3)CC2C1 (stereo not drawn) [Example 803] | 7 µM
18 | FC(F)(F)c1ncccc1CN1CC2CN(c3ccc4nnc(C(F)(F)F)n4n3)CC2C1 (stereo not drawn) [Example 805] | 1 µM
19 | COc1cccc(OC2CCN(c3ccc4nnc(C(F)(F)F)n4c3)CC2)c1 [Example 806, 6-[4-(3-methoxyphenoxy)piperidin-1-yl]-3-(trifluoromethyl)[1,2,4]triazolo[4,3-a]pyridine] | 2.3 µM
20 | FC(F)(F)c1nnc2ccc(N3CCN(Cc4c[nH]c5ccccc45)CC3)cn12 [Example 807] | 7.5 µM
21 | Fc1ccc2[nH]cc(CN3CCN(c4ccc5nnc(C(F)(F)F)n5c4)CC3)c2c1 [Example 808] | 1 µM
22 | Fc1ccc(C(F)F)c(CN2CCN(c3ccc4nnc(C(F)(F)F)n4c3)CC2)c1 [Example 810, 6-[4-[2-(difluoromethyl)-5-fluorobenzyl]piperazin-1-yl]-3-(trifluoromethyl)[1,2,4]triazolo[4,3-a]pyridine] | 1.9 µM
23 | Fc1cc(Cl)cc(CN2CCN(c3ccc4nnc(C(F)F)n4n3)CC2)c1 [Example 813] | 6.8 µM
24 | Fc1ccc(Cl)c(CN2CCN(c3ccc4nnc(C(F)F)n4n3)CC2)c1 [Example 815] | > 17 µM
25 | Fc1cc(CN2CCN(c3ccc4nnc(C(F)F)n4n3)CC2)cc(F)c1F [Example 818] | 3.8 µM
26 | CS(=O)(=O)c1ccc(F)cc1CN1CCN(c2ccc3nnc(C(F)F)n3n2)CC1 [Example 819] | > 18 µM
27 | Fc1cccc(CN2CCN(c3ccc4nnc(C(F)F)n4n3)CC2)c1Cl [Example 822] | 1.7 µM
